In patent US20180099931A1 (AbbVie S.à.r.l., priority 2016, published 2018):
Where two headings read alike, the source gives them in different places.

Target: T1, F508delCFTR (Homo sapiens, UniProt P13569, DEL508-508)
T1 construct: expressed in transfected cells; host or cells: CFBE41o- human lung-derived epithelial cells (CFBE4lo-F508delCFTR-HRP), doxycycline-inducible
Test: Cell Surface Expression-Horse Radish Peroxidase (CSE-HRP) Assay;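 as to Maximum % activity (with co-corrector): co-corrector and positive control are both the same reference corrector at 2 µM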;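 as to Maximum % activity (without co-corrector): percent of the 2 µM on-plate positive control corrector response above DMSO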
Format: cell-based
Details: CSE-HRP; for Maximum % activity (with co-corrector): with co-corrector (2 μM); for Maximum % activity (with co-corrector) / Emax: maximum at any tested concentration, normalized to on-plate positive control; for Emax: without co-corrector, read-out: Maximum % activity (without co-corrector)
Procedure: Cell Surface Expression-Horse Radish Peroxidase (CSE-HRP) Assay;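 as to Maximum % activity (with co-corrector): co-corrector and positive control are both the same reference corrector at 2 µM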;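 as to Maximum % activity (without co-corrector): percent of the 2 µM on-plate positive control corrector response above DMSO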
The development was achieved by expressing the F508delCFTR mutation along with a horseradish peroxidase (HRP) in the fourth exofacial loop, and then measuring the HRP activity using luminescence readout from these cells, CFBE4lo-F508delCFTR-HRP, that were incubated overnight with the test corrector compounds, either without or with the co-corrector. […] The test compounds were then added either without or with a co-corrector at the required concentrations and further incubated for 18-24 hours at 33° C. The highest concentration tested was 20 μM with an 8-point concentration response curve using a 3-fold dilution in both the test compound without or with the co-corrector. Three replicate plates were run to determine one EC50. All plates contained negative controls (dimethyl sulfoxide, DMSO) and positive control (2 μM of 3-[(2R,4R)-4-({[1-(2,2-difluoro-1,3-benzodioxol-5-yl)cyclopropyl]carbonyl}amino)-7-methoxy-3,4-dihydro-2H-chromen-2-yl]benzoic acid) as well as on-plate concentration response of the positive control. […] The raw counts from the experiment were analyzed using Accelrys® Assay Explorer v3.3.
1−[3*SDPositive Control+3*SDNegative Control/Absolute(MeanPositive Control−MeanNegative Control)]
wherein “SD” is standard deviation.
The % activity measured at each of the 8 test concentrations of the test compound added either without or with a co-corrector (2 μM of 3-[(2R,4R)-4-({[1-(2,2-difluoro-1,3-benzodioxol-5-yl)cyclopropyl]carbonyl}amino)-7-methoxy-3,4-dihydro-2H-chromen-2-yl]benzoic acid) was normalized to the on-plate positive control using the following formulae:
% activity(Test compound without co-corrector)=[(test compound without co-corrector response−DMSO response)/(positive control response−DMSO response)]*100
% activity(Test compound with co-corrector)=[(test compound with co-corrector response−DMSO response)/(positive control response−DMSO response)]*100
The maximum % activity achieved for the test compound either without or with a co-corrector at any tested concentration is presented in Table 4 along with the respective EC50's calculated using the following general sigmoidal curve with variable Hill slope equation (described as Model 42 in the Accelrys® Assay Explorer v3.3 software):
General sigmoidal curve with concentration, response, top, bottom, EC50 and Hill slope. This model describes a sigmoidal curve with an adjustable baseline, a. The equation can be used to fit curves where response is either increasing or decreasing with respect to the independent variable, “x”.
“x” is a concentration of drug under test. “y” is the response. “a” is the maximum response, and “d” is the minimum response “c” is the inflection point (EC50) for the curve. That is, “y” is halfway between the lower and upper asymptotes when x=c. “b” is the slope-factor or Hill coefficient. The sign of b is positive when the response increases with increasing dose and is negative when the response decreases with increasing dose (inhibition).

[1] = test compound without co-corrector, read-out: EC50 (without co-corrector)
[2] = with co-corrector (2 μM of 3-[(2R,4R)-4-({[1-(2,2-difluoro-1,3-benzodioxol-5-yl)cyclopropyl]carbonyl}amino)-7-methoxy-3,4-dihydro-2H-chromen-2-yl]benzoic acid), read-out: EC50 (with co-corrector)

T1 sequence (P13569 with tags, fused parts or gaps DEL508-508): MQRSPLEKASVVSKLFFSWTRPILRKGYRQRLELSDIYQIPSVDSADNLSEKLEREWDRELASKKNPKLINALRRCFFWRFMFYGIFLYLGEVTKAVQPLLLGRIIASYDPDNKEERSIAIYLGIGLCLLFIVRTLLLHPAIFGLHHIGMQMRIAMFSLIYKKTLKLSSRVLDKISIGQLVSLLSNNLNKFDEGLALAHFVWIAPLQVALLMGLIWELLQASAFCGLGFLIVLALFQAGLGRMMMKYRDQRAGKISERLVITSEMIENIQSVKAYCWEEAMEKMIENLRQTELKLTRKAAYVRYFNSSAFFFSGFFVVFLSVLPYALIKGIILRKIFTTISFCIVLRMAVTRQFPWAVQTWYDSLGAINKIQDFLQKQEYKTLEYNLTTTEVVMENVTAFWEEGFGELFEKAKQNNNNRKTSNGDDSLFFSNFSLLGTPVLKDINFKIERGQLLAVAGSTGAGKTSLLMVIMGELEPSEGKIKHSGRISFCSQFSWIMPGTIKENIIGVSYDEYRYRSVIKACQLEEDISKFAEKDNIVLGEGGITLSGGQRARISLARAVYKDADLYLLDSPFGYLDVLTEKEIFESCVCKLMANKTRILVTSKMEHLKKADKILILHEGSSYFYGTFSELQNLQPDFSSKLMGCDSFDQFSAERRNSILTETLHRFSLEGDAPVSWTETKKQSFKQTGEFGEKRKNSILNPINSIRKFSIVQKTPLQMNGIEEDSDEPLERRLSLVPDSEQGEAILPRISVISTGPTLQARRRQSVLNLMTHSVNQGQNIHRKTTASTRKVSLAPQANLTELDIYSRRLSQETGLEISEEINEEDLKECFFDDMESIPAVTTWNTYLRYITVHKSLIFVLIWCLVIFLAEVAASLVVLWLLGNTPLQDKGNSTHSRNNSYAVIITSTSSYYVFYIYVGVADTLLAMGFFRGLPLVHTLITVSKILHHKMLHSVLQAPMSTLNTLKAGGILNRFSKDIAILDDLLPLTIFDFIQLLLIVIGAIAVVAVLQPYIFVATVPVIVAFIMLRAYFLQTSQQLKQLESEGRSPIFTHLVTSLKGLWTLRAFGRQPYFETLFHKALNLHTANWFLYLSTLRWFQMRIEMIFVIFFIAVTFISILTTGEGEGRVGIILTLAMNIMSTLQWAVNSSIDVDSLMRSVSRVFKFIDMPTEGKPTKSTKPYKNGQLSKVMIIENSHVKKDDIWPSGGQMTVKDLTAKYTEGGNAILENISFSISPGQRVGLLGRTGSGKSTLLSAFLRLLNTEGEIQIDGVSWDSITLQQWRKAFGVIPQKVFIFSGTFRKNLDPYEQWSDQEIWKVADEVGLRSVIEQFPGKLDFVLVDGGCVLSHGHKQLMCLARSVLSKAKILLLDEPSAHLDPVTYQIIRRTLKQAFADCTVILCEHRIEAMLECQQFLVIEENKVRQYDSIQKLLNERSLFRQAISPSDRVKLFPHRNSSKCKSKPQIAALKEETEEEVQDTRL

| EC50 [1] [nM] | EC50 [2] [nM] | Maximum % activity (with co-corrector) | Emax [%] | Structure (SMILES) |
| --- | --- | --- | --- | --- |
| 1000 to 10000 | 1000 to 10000 | +++ (≥350) | < 100 | Cc1cc(C(F)(F)F)cc(N[C@@H]2[C@@H](C(C)(C)C)[C@H](C(=O)O)N(C(=O)OC(C)C)[C@@H]2c2ccccc2)n1 (racemic) [II-13] |
| < 1000 | < 1000 | +++ (≥350) | < 100 | CC(C)(C)[C@@H]1[C@@H](NCc2cc(C(F)(F)F)cnc2Cl)[C@@H](c2ccccc2)N(C(=O)C2CCCCC2)[C@H]1C(=O)O (racemic) [II-15] |
| 1000 to 10000 | 1000 to 10000 | +++ (≥350) | > 200 | COc1ccc(C(F)(F)F)cc1CN[C@@H]1[C@@H](C(C)(C)C)[C@H](C(=O)O)N(C(=O)C2CCCCO2)[C@@H]1c1ccccc1N(C)C (mixture of isomers) [II-20] |
| 1000 to 10000 | 1000 to 10000 | +++ (≥350) | > 200 | COc1ccc(C(F)(F)F)cc1CN[C@@H]1[C@@H](C(C)(C)C)[C@H](C(=O)O)N(C(=O)C2CCCOC2)[C@@H]1c1ccccc1N(C)C (mixture of isomers) [II-21] |
| 1000 to 10000 | 1000 to 10000 | +++ (≥350) | 100 to 200 | COc1cc(C(F)(F)F)ccc1CN[C@@H]1[C@@H](C(C)(C)C)[C@H](C(=O)O)N(C(=O)C2CCCOC2)[C@@H]1c1ccccc1N(C)C (mixture of isomers) [II-22] |
| 1000 to 10000 | 1000 to 10000 | +++ (≥350) | > 200 | COC(=O)N1CCC[C@H](C(=O)N2[C@H](c3ccccc3)[C@H](Nc3cc(C(F)(F)F)cc(C)n3)[C@@H](C(C)(C)C)[C@@H]2C(=O)O)C1 (racemic) [II-27] |
| 1000 to 10000 | 1000 to 10000 | +++ (≥350) | > 200 | COc1ccc(Cl)cc1CN[C@@H]1[C@@H](C(C)(C)C)[C@H](C(=O)O)N(C(=O)OC(C)C)[C@@H]1c1cccnc1N(C)C (racemic) [II-28] |
| 1000 to 10000 | 1000 to 10000 | +++ (≥350) | > 200 | COc1cc(Cl)ccc1CN[C@@H]1[C@@H](C(C)(C)C)[C@H](C(=O)O)N(C(=O)OC(C)C)[C@@H]1c1cccnc1N(C)C (racemic) [II-29] |
| 1000 to 10000 | 1000 to 10000 | +++ (≥350) | < 100 | CC(C)(C)[C@@H]1[C@@H](NCc2ccccc2C(F)(F)F)[C@@H](c2ccccc2)N(C(=O)C2CCCCC2)[C@H]1C(=O)O (racemic) [II-31] |
| 1000 to 10000 | 1000 to 10000 | +++ (≥350) | < 100 | COc1ccc(C(F)(F)F)cc1CN[C@@H]1[C@@H](C(C)(C)C)[C@H](C(=O)O)N(C(=O)Cc2ccccc2)[C@@H]1c1ccccc1 (racemic) [II-32] |
| 1000 to 10000 | 1000 to 10000 | +++ (≥350) | 100 to 200 | COc1ccc(C(F)(F)F)cc1CN[C@H]1[C@H](C(C)(C)C)[C@@H](C(=O)O)N(C(=O)[C@H](OC)c2ccccc2)[C@H]1c1cccnc1N(C)C (racemic) [II-33] |
| 1000 to 10000 | 1000 to 10000 | +++ (≥350) | > 200 | COc1ccc(C(F)(F)F)cc1CN[C@@H]1[C@@H](C(C)(C)C)[C@H](C(=O)O)N(C(=O)[C@@H]2CCCO[C@@H]2C)[C@@H]1c1ccccc1 (racemic) [II-34] |
| 1000 to 10000 | 1000 to 10000 | +++ (≥350) | > 200 | COc1ccc(C(F)(F)F)cc1CN[C@@H]1[C@@H](C(C)(C)C)[C@H](C(=O)O)N(C(=O)[C@H]2CCCO[C@H]2C)[C@@H]1c1ccccc1 (racemic) [II-35] |
| 1000 to 10000 | 1000 to 10000 | +++ (≥350) | > 200 | COc1ccc(C(F)(F)F)cc1CN[C@@H]1[C@@H](C(C)(C)C)[C@H](C(=O)O)N(C(=O)[C@@H]2CCC[C@@H](OC)C2)[C@@H]1c1ccccc1 (racemic) [II-36] |

Second part, the compound before the results:

| Structure (SMILES) | EC50 [1] [nM] | EC50 [2] [nM] | Maximum % activity (with co-corrector) | Emax [%] |
| --- | --- | --- | --- | --- |
| COc1ccc(Cl)cc1CN[C@@H]1[C@@H](C2CC2)[C@H](C(=O)O)N(C(=O)C2CCCCC2)[C@@H]1c1ccccc1 (racemic) [II-12] | 1000 to 10000 | 1000 to 10000 | +++ (≥350) | 100 to 200 |
| COc1ccccc1[C@@H]1[C@H](NCc2cc(C(F)(F)F)cnc2Cl)[C@@H](C(C)(C)C)[C@H](C(=O)O)N1C(=O)C1CCCCC1 (racemic) [II-16] | 1000 to 10000 | 1000 to 10000 | +++ (≥350) | < 100 |
| COc1ccc(C(F)(F)F)cc1CN[C@@H]1[C@@H](C(C)(C)C)[C@H](C(=O)O)N(C(=O)C2CCCCC2)[C@@H]1c1ccccc1OC (racemic) [II-17] | 1000 to 10000 | 1000 to 10000 | +++ (≥350) | 100 to 200 |
| COc1cccc([C@@H]2[C@H](NCc3cc(Cl)ccc3OC)[C@@H](C(C)(C)C)[C@H](C(=O)O)N2C(=O)C2CCCCC2)n1 (racemic) [II-19] | 1000 to 10000 | 1000 to 10000 | +++ (≥350) | 100 to 200 |
| COc1cc(Cl)ccc1CN[C@@H]1[C@@H](C(C)(C)C)[C@H](C(=O)O)N(C(=O)C2CCCOC2)[C@@H]1c1ccccc1N(C)C (mixture of isomers) [II-23] | 1000 to 10000 | 1000 to 10000 | +++ (≥350) | 100 to 200 |
| COc1ccc(C(F)(F)F)cc1CN[C@@H]1[C@@H](C(C)(C)C)[C@H](C(=O)O)N(C(=O)C2CCOC(C)(C)C2)[C@@H]1c1ccccc1N(C)C (mixture of isomers) [II-24] | 1000 to 10000 | 1000 to 10000 | +++ (≥350) | > 200 |
| COc1ccc(Cl)cc1CN[C@@H]1[C@@H](C(C)(C)C)[C@H](C(=O)O)N(C(=O)C2CCOC(C)(C)C2)[C@@H]1c1ccccc1N(C)C (mixture of isomers) [II-25] | 1000 to 10000 | 1000 to 10000 | +++ (≥350) | > 200 |
| COc1cc(Cl)ccc1CN[C@@H]1[C@@H](C(C)(C)C)[C@H](C(=O)O)N(C(=O)C2CCOC(C)(C)C2)[C@@H]1c1ccccc1N(C)C (mixture of isomers) [II-26] | 1000 to 10000 | 1000 to 10000 | +++ (≥350) | > 200 |
| COc1ncc(F)cc1CN[C@@H]1[C@@H](C(C)(C)C)[C@H](C(=O)O)N(C(=O)C2CCCCC2)[C@@H]1c1ccccc1 (racemic) [II-30] | 1000 to 10000 | 1000 to 10000 | +++ (≥350) | 100 to 200 |
